IC50 and MTAP intact/deleted ratio data for 14 molecules are collected here from patent US11999727B2 (Tango Therapeutics, Inc., priority 2020, dated 2024).

Experiment [1] deals with HAP1 MTAP-intact cell line. Kind of experiment: SDMA in-cell western assay, HAP1 MTAP-intact. It counts as cell-based. As to conditions: Homo sapiens, HAP1, SDMA in-cell western, HAP1 MTAP-intact; read-out: MTAP HAP1 intact IC50. In short, it runs like this: (§1)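 IC50 values come from SDMA signal quantified by in-cell western in two HAP1 lines, one with native MTAP levels and one lacking MTAP.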

The target of experiment [2] is T1, PRMT5 (Homo sapiens, UniProt O14744).
T1 construct: purchased Viva (custom protein)
T1 sequence (O14744 whole entry): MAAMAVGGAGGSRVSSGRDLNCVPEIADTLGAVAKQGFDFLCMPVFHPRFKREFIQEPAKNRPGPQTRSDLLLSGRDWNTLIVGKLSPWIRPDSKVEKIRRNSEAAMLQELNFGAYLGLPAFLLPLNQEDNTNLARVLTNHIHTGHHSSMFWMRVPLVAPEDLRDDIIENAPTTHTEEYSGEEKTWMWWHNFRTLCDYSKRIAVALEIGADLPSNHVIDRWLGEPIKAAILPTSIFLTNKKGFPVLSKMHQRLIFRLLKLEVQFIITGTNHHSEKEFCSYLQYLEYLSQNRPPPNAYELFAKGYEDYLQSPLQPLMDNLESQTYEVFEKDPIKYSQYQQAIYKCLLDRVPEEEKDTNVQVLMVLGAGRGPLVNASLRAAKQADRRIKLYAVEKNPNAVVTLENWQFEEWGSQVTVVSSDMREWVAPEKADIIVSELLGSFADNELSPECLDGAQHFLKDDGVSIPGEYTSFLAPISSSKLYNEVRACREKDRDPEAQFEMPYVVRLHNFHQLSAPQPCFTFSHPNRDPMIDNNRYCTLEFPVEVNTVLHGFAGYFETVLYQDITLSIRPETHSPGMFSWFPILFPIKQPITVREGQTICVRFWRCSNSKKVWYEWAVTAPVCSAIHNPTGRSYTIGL
T1 sequence (Q9BQA1 whole entry partner): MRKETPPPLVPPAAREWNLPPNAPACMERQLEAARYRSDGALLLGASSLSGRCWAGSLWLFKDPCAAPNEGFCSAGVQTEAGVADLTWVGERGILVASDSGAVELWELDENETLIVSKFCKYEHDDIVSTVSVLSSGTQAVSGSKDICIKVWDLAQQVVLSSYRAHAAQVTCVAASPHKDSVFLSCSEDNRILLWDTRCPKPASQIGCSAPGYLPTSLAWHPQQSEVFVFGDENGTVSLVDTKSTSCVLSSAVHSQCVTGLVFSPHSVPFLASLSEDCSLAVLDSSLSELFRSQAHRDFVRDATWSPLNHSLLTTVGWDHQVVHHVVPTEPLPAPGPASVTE
Kind of experiment: PRMT5 biochemical IC50 assay with SAM as cofactor. Conditions: PRMT5, SAM as cofactor; read-out: SAM IC50.

For experiment [3], the target named is T1, PRMT5. Kind of experiment: PRMT5 biochemical IC50 assay with no cofactor. As to conditions: PRMT5, no cofactor; read-out: No Cofactor/rel IC50. An excerpt: Table 1 indicates IC50 values (μM) against PRMT5 for exemplary compounds in the presence of SAM as cofactor, with no cofactor, and with MTA as cofactor, respectively (columns 4-6). […] Ki values can be calculated from the IC50 values as described in the Examples section. As detailed in the Examples section, for the assay performed in the presence of SAM, IC50=Ki×1.5 (Ki=IC50/1.5).

Experiment [4] deals with T1, PRMT5. Nature of the experiment: PRMT5 biochemical IC50 assay with MTA as cofactor. Conditions: PRMT5, MTA as cofactor; read-out: MTA IC50.
Experiment [5] concerns HAP1 MTAP-deleted cell line. Nature of the experiment: Viability assay, MTAP-deleted cell line. It counts as cell-based. Conditions: Homo sapiens, HAP1, viability IC50, MTAP-deleted cell line; read-out: HAP1 MTAP deleted viability. The text has this: Table 1 additionally indicates IC50 values in a viability assay for the MTAP-deleted cell line (column 10), indicating the effect of treatment with compound on cell survival.

Experiment [6] concerns HAP1 MTAP-deleted cell line. Nature of the experiment: SDMA in-cell western assay, HAP1 MTAP-deleted. It counts as cell-based. As to conditions: for pIC50: Homo sapiens, HAP1, SDMA in-cell western, HAP1 MTAP-deleted, read-out: HAP 1 MTAP deleted IC50; for MTAP intact/deleted ratio: IC50 ratio HAP1 MTAP-intact / HAP1 MTAP-deleted, SDMA in-cell western. In short, it runs like this: as §1

SMILES strings stand for the structures. pIC50: −log10 of the molar value.

On to `COc1ccccc1[C@@H]1CC[C@@H](C)CN1C(=O)C(=O)Nc1cncc(C(N)=O)c1` (racemic) [Compound 558, 5-[[2-[(2S,5R)-2-(2-Methoxyphenyl)-5-methyl-1-piperidyl]-2-oxo-acetyl]amino]pyridine-3-carboxamide], for which the pIC50 is under 6.00 in experiment [1]; 6.30 to 7.30 at PRMT5 [2]; under 6.30 at PRMT5 [3]; 6.30 to 7.30 at PRMT5 [4]; under 5.00 in experiment [5]; 6.00 to 7.00 in experiment [6]. Also, the MTAP intact/deleted ratio entry in experiment [6] is “A (an IC50 ratio greater than or equal to 10 fold)”.
Regarding `C[C@@H]1CC[C@@H](c2cc(F)c(O)c(F)c2)N(C(=O)C(=O)Nc2cncc(C(N)=O)c2)C1` (racemic) [Compound 560, rac-5-[[2-[(2R,5S)-2-(3,5-difluoro-4-hydroxy-phenyl)-5-methyl-1-piperidyl]-2-oxo-acetyl]amino]pyridine-3-carboxamide], the pIC50 is under 6.00 in experiment [1]; 6.30 to 7.30 on PRMT5 [2]; 6.30 to 7.30 on PRMT5 [3]; 6.30 to 7.30 at PRMT5 [4]; under 5.00 in experiment [5]; 6.00 to 7.00 in experiment [6]. In experiment [6], the MTAP intact/deleted ratio result is on record as “A (an IC50 ratio greater than or equal to 10 fold)”.
On to `CNc1ccc([C@@H]2CCC[C@H](C)N2C(=O)C(=O)Nc2cncc(C(N)=O)c2)cn1` (racemic) [Compound 561, 5-[[2-[(2S,6S)-2-methyl-6-[6-(methylamino)-3-pyridyl]-1-piperidyl]-2-oxo-acetyl]amino]pyridine-3-carboxamide], for which the pIC50 was under 6.00 in experiment [1]; 6.30 to 7.30 at PRMT5 [2]; 6.30 to 7.30 on PRMT5 [3]; 6.30 to 7.30 at PRMT5 [4]; under 5.00 in experiment [5]; 6.00 to 7.00 in experiment [6]. Further, the MTAP intact/deleted ratio entry in experiment [6] is reported as “A (an IC50 ratio greater than or equal to 10 fold)”.
As for `Cc1ccc([C@@H]2CC[C@@H](C)CN2C(=O)C(=O)Nc2cnc(N)c(C)c2)cc1O` (racemic) [Compound 580, N-(6-amino-5-methylpyridin-3-yl)-2-(2-(3-hydroxy-4-methylphenyl)-5-methylpiperidin-1-yl)-2-oxoacetamide], the pIC50 in experiment [1] was 6.00 to 7.00; on PRMT5 [2] it was 6.30 to 7.30; at PRMT5 [3], 6.30 to 7.30; on PRMT5 [4], 6.30 to 7.30; in experiment [5], over 6.00; in experiment [6], over 7.00. Further, the MTAP intact/deleted ratio result in experiment [6] was “A (an IC50 ratio greater than or equal to 10 fold)”.
As for `Cc1cc(NC(=O)C(=O)N2C[C@H](C)CC[C@H]2c2ccc3c(c2)C(=O)NC3)cnc1N` (racemic) [Compound 582, N-(6-amino-5-methyl-3-pyridyl)-2-[(2R,5S)-5-methyl-2-(3-oxoisoindolin-5-yl)-1-piperidyl]-2-oxo-acetamide], the pIC50 in experiment [1] was 6.00 to 7.00; at PRMT5 [2], 6.30 to 7.30; on PRMT5 [3] it was 6.30 to 7.30; at PRMT5 [4], 6.30 to 7.30; in experiment [5] it was 5.00 to 6.00; in experiment [6], over 7.00. The MTAP intact/deleted ratio entry in experiment [6] is on record as “A (an IC50 ratio greater than or equal to 10 fold)”.
In the case of `C[C@@H]1CC[C@H](c2ccccn2)N(C(=O)C(=O)Nc2cncc(C(N)=O)c2)C1` (racemic) [Compound 584, 5-[[2-[(2R,5R)-5-methyl-2-(2-pyridyl)-1-piperidyl]-2-oxo-acetyl]amino]pyridine-3-carboxamide], the pIC50 in experiment [1] was under 6.00; on PRMT5 [2], under 6.30; at PRMT5 [3], under 6.30; at PRMT5 [4] it was 6.30 to 7.30; in experiment [5], under 5.00; in experiment [6], 6.00 to 7.00. Further, the MTAP intact/deleted ratio result in experiment [6] is reported as “A (an IC50 ratio greater than or equal to 10 fold)”.
For the molecule `C[C@@H]1CC[C@@H](c2ccccc2F)N(C(=O)C(=O)Nc2cncc(C(N)=O)c2)C1` (racemic) [Compound 595, 5-[[2-[(2R,5S)-2-(2-Fluorophenyl)-5-methyl-1-piperidyl]-2-oxo-acetyl]amino]pyridine-3-carboxamide], the pIC50 was under 6.00 in experiment [1]; 6.30 to 7.30 on PRMT5 [2]; 6.30 to 7.30 on PRMT5 [3]; 6.30 to 7.30 on PRMT5 [4]; 5.00 to 6.00 in experiment [5]; over 7.00 in experiment [6]. The MTAP intact/deleted ratio entry in experiment [6] was “A (an IC50 ratio greater than or equal to 10 fold)”.
With `Cc1cc(NC(=O)C(=O)N2C[C@H](C)CC[C@H]2c2cccc(Br)c2)cnc1N` (racemic) [Compound 600, N-(6-amino-5-methyl-3-pyridyl)-2-[(2S,5R)-2-(3-bromophenyl)-5-methyl-1-piperidyl]-2-oxo-acetamide], the pIC50 was 6.00 to 7.00 in experiment [1]; 6.30 to 7.30 at PRMT5 [2]; 6.30 to 7.30 on PRMT5 [3]; 6.30 to 7.30 on PRMT5 [4]; over 6.00 in experiment [5]; over 7.00 in experiment [6]. For the same molecule, the MTAP intact/deleted ratio entry in experiment [6] is “A (an IC50 ratio greater than or equal to 10 fold)”.
For the molecule `C[C@@H]1CC[C@@H](c2cccc(Br)c2)N(C(=O)C(=O)Nc2cncc(C(N)=O)c2)C1` (racemic) [Compound 601, 5-(2-(2-(3-bromophenyl)-5-methylpiperidin-1-yl)-2-oxoacetamido)nicotinamide], the pIC50 in experiment [1] was under 6.00; at PRMT5 [2], 6.30 to 7.30; at PRMT5 [3], 6.30 to 7.30; on PRMT5 [4], 6.30 to 7.30; in experiment [5], 5.00 to 6.00; in experiment [6], over 7.00. Moreover, the MTAP intact/deleted ratio entry in experiment [6] is “A (an IC50 ratio greater than or equal to 10 fold)”.
For the molecule `C[C@@H]1CC[C@@H](c2ccc(O)c(C(C)(C)C)c2)N(C(=O)C(=O)Nc2cncc(C(N)=O)c2)C1` (racemic) [Compound 610, 5-[[2-[(2R,5S)-2-(3-tert-Butyl-4-hydroxy-phenyl)-5-methyl-1-piperidyl]-2-oxo-acetyl]amino]pyridine-3-carboxamide], the pIC50 in experiment [1] is under 6.00; on PRMT5 [2], 6.30 to 7.30; on PRMT5 [3], 6.30 to 7.30; at PRMT5 [4] it was 6.30 to 7.30; in experiment [5] it was 5.00 to 6.00; in experiment [6], over 7.00. In experiment [6], the MTAP intact/deleted ratio result is recorded as “A (an IC50 ratio greater than or equal to 10 fold)”.
Turning to `Cc1cc(NC(=O)C(=O)N2C[C@H](C)CC[C@H]2C2CCN(C)CC2)cnc1N` (racemic) [Compound 614, N-(6-amino-5-methyl-3-pyridyl)-2-[(2R,5S)-5-methyl-2-(1-methyl-4-piperidyl)-1-piperidyl]-2-oxo-acetamide], the pIC50 is under 6.00 in experiment [1]; under 6.30 on PRMT5 [2]; under 6.30 on PRMT5 [3]; under 6.30 at PRMT5 [4]; under 5.00 in experiment [5]; under 6.00 in experiment [6]. In addition, the MTAP intact/deleted ratio result in experiment [6] is “C (an IC50 ratio of less than 3 fold)”.
Take `Cc1ncc(NC(=O)C(=O)N2C[C@H](C)CC[C@H]2c2ccc(F)cc2)cc1Cl` (racemic) [Compound 622, N-(5-chloro-6-methyl-3-pyridyl)-2-[(2S,5R)-2-(4-fluorophenyl)-5-methyl-1-piperidyl]-2-oxo-acetamide]: the pIC50 was under 6.00 in experiment [1]; 6.30 to 7.30 at PRMT5 [2]; 6.30 to 7.30 at PRMT5 [3]; 6.30 to 7.30 at PRMT5 [4]; under 5.00 in experiment [5]; under 6.00 in experiment [6]. Also, in experiment [6], the MTAP intact/deleted ratio result is on record as “B (an IC50 ratio greater than or equal to 3 fold but lower than 10 fold)”.
For `C[C@@H]1CC[C@@H](c2ccc3[nH]c(=O)[nH]c3c2)N(C(=O)C(=O)Nc2cncc(C(N)=O)c2)C1` (racemic) [Compound 623, rac-5-[[2-[(2R,5S)-5-methyl-2-(2-oxo-1,3-dihydrobenzimidazol-5-yl)-1-piperidyl]-2-oxo-acetyl]amino]pyridine-3-carboxamide], the pIC50 was under 6.00 in experiment [1]; 6.30 to 7.30 at PRMT5 [2]; 6.30 to 7.30 at PRMT5 [3]; 6.30 to 7.30 at PRMT5 [4]; under 5.00 in experiment [5]; 6.00 to 7.00 in experiment [6]. The MTAP intact/deleted ratio entry in experiment [6] was “A (an IC50 ratio greater than or equal to 10 fold)”.
For `Cc1ncc(NC(=O)C(=O)N2C[C@H](C)CC[C@H]2c2ccc3c(c2)CCC(=O)N3)cc1Cl` (racemic) [Compound 639, N-(5-Chloro-6-methyl-3-pyridyl)-2-[(2R,5S)-5-methyl-2-(2-oxo-3,4-dihydro-1H-quinolin-6-yl)-1-piperidyl]-2-oxo-acetamide], the pIC50 in experiment [1] is under 6.00; at PRMT5 [2] it was 6.30 to 7.30; on PRMT5 [3], 6.30 to 7.30; on PRMT5 [4], 6.30 to 7.30; in experiment [5], 5.00 to 6.00; in experiment [6] it was over 7.00. Besides, the MTAP intact/deleted ratio result in experiment [6] is reported as “A (an IC50 ratio greater than or equal to 10 fold)”.
